In US10501433B2, “Kynurenine-3-monooxygenase inhibitors, pharmaceutical compositions, and methods of use thereof” (CHDI Foundation, Inc., priority 2013, dated 2019):

Target: T1, KMO mouse enzyme (Mus musculus, UniProt Q91WN4)
T1 construct: KMO enzyme prepared at Evotec from mouse liver (4-6 weeks old) via mitochondria isolation; from tissue; host or cells: mouse liver (4-6 weeks old), isolated mitochondria
Test: KMO enzyme assay monitoring L-Kynurenine hydroxylation to 3OH-KYN by LC/MS (protocols substantially similar to Biology Example 3)
Type: biochemical
Settings: compound at 30 μM; KMO enzyme from mouse liver mitochondria; 100 μM L-Kynurenine
Description: A method of monitoring L-Kynurenine (KYN) hydroxylation to form 3-Hydroxy-Kynurenine (3OH-KYN) by LC/MS is described. Product is quantified by multiple reaction monitoring (MRM method).
• Compound: Stock concentrations: 10 mM in 100% DMSO • Enzyme: KMO enzyme prepared at Evotec from mouse liver (4-6 weeks old) via mitochondria isolation as described in the literature • Substrate: L-Kynurenine (Sigma: Cat #K3750, stock concentration: 10 mM in 100 mM potassium phosphate buffer, pH 7.4) Assay Conditions: • Buffer: 100 mM potassium phosphate, pH 7.4, 200 μM NADPH, 0.4 U/ml G6P-DH (Glucose 6-phosphate Dehydrogenase), 3 mM G6P (D-Glucose 6-phosphate) • Assay Volume: 40 μl • Plate Format: 384 well plate, transparent (Matrix) • Read-Out: product (3OH-KYN) quantification using product specific MRM • Reader: LC/MS/MS Assay Protocol: • prepare serial dilution (factor 3) of compound in 100% DMSO (top concentration=10 mM, 100% DMSO) • [[…]: 10 mM; 3.33 mM; 1.11 mM; 0.37 mM; 0.12 mM; 0.04 mM; 0.0137 mM; 0.0045 mM, […]] • prepare 3.33-fold concentrated solution of each compound concentration (top concentration 300 μM, 3% DMSO) in assay buffer • [concentrations: 300 μM; 100 μM; 33.3 μM; 11.1 μM; 3.70 μM; 1.23 μM; 0.41 μM; 0.137 μM] • prepare substrate (10 mM) at concentration of 1 mM in assay buffer • assay mix: 4 μl compound/well of each concentration+24 μl assay buffer/well+8 μl KMO mouse enzyme+4 μl 1 mM substrate (final concentration=100 μM) • [final compound top concentration: 30 μM; 0.3% DMSO] • [final compound bottom concentration: 0.0137 μM; 0.3% DMSO] • positive control: 4 μl 50 μM FCE28833 in assay buffer, 0.5% DMSO [final assay concentration=5 μM]+24 μl assay buffer/well+8 μl KMO mouse enzyme+4 μl mM substrate [final concentration=100 μM] • negative control: 28 μl assay buffer/well+8 μl KMO mouse enzyme+4 μl 1 mM substrate • [final concentration=100 μM] • incubate 40 min at RT • add 40 μl/well 10% trichloro acetic acid in water to stop the assay and precipitate protein • centrifuge plate for 3 min at 4000 rpm • product detection by LC/MS (injection of 20 μl/well, 2 fold overfill of the 10 μl sample loop) Data Analysis:
IC50's are calculated using automated fitting algorithm (A+ Analysis).
Using the assay protocols substantially similar to those of Biology Example 3, the following compounds were tested.

T1 sequence (Q91WN4 whole entry): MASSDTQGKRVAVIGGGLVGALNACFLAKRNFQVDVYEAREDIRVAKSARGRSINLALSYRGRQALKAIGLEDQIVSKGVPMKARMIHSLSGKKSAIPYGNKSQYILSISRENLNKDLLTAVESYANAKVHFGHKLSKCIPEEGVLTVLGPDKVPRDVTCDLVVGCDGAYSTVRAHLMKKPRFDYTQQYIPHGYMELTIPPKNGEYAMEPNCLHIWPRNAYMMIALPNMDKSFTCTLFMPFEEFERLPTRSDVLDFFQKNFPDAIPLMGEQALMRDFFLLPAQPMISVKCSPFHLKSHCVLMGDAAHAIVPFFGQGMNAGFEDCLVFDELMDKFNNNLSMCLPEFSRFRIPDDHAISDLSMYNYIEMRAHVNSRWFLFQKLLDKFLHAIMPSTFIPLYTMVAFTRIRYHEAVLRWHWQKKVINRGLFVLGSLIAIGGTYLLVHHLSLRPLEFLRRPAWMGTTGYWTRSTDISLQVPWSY

| Compound | inhibition at 30 µM [%] |
| --- | --- |
| O=C(O)[C@H]1C[C@@H]1C(=O)c1cc(Cl)c2c(c1)CCO2 [Example 1, Method 1, (1S, 2S)-2-(7-chloro-2,3-dihydro-1-benzofuran-5-carbonyl)cyclopropane-1-carboxylic acid] | 100 |
| O=C(O)[C@H]1C[C@@H]1C(=O)c1cc(Cl)c2c(c1)CCCO2 [Example 1, Method 2, (1S, 2S)-2-(8-Chloro-3,4-dihydro-2H-1-benzopyran-6-carbonyl)cyclopropane-1-carboxylic acid] | 100 |
| Cn1c(=O)oc2cc(C(=O)[C@H]3C[C@@H]3C(=O)O)cc(Cl)c21 [Example 1, Method 3, (1S,2S)-2-(4-Chloro-3-methyl-2-oxo-2,3-dihydro-1,3-benzoxazole-6-carbonyl)cyclopropane-1-carboxylic acid] | 93.5 |
| O=C(O)[C@H]1C[C@@H]1C(=O)c1ccc2c(c1)OCCO2 [Example 1, Method 4, (1S,2S)-2-(2,3-Dihydro-1,4-benzodioxine-6-carbonyl)cyclopropane-1-carboxylic acid] | 102 |
| CC1Cc2cc(C(=O)[C@H]3C[C@@H]3C(=O)O)ccc2O1 (stereo partly drawn) [Example 1, Method 5, (1S,2S)-2-(2-methyl-2,3-dihydro-1-benzofuran-5-carbonyl)cyclopropane-1-carboxylic acid] | 103 |
| CC1Cc2cc(C(=O)[C@H]3C[C@@H]3C(=O)O)cc(Cl)c2O1 (stereo partly drawn) [Example 1, Method 6, (1S,2S)-2-(7-chloro-2-methyl-2,3-dihydro-1-benzofuran-5-carbonyl)-cyclo-propane-1-carboxylic acid] | 100 |
| CC1COc2c(Cl)cc(C(=O)[C@H]3C[C@@H]3C(=O)O)cc2C1 (stereo partly drawn) [Example 1, Method 7, (1S,2S)-2-(8-Chloro-3-methyl-3,4-dihydro-2H-1-benzopyran-6-carbonyl)cyclo-propane-1-carboxylic acid] | 101 |

Continued, values first:

| inhibition at 30 µM [%] | Compound |
| --- | --- |
| 102 | O=C(O)[C@H]1C[C@@H]1C(=O)c1cc(Cl)c2c(c1)OCCO2 [Example 1, Method 8, (1S,2S)-2-(8-Chloro-2,3-dihydro-1,4-benzodioxine-6-carbonyl)cyclopropane-1-carboxylic acid] |
| 102 | O=C(O)[C@H]1C[C@@H]1C(=O)c1cc(Cl)c2c(c1)OCO2 [Example 1, Method 9, (1S,2S)-2-(7-Chloro-2H-1,3-benzodioxole-5-carbonyl)cyclopropane-1-carboxylic acid] |
| 102 | CC1Oc2cc(C(=O)[C@H]3C[C@@H]3C(=O)O)cc(Cl)c2O1 (stereo partly drawn) [Example 1, Method 10, (1S,2S)-2-(7-Chloro-2-methyl-2H-1,3-benzodioxole-5-carbonyl)cyclopropane-1-carboxylic acid] |
| 98.7 | O=C(O)[C@H]1C[C@@H]1C(=O)c1ccc2c(c1)CCO2 [Example 2, Method 1, (1S,2S)-2-(2,3-dihydro-1-benzofuran-5-carbonyl)cyclopropane-1-carboxylic acid] |
| 101 | Cn1c(=O)oc2c(Cl)cc(C(=O)[C@H]3C[C@@H]3C(=O)O)cc21 [Example 2, Method 3, (1S,2S)-2-(7-Chloro-3-methyl-2-oxo-2,3-dihydro-1,3-benzoxazole-5-carbonyl)cyclopropane-1-carboxylic acid] |
| 101 | O=C(O)[C@H]1C[C@@H]1C(=O)c1ccc2c(c1)CCCO2 [Example 2, Method 4, (1S,2S)-2-(3,4-dihydro-2H-1-benzopyran-6-carbonyl)cyclopropane-1-carboxylic acid] |
| 64.8 | CC1(C)Cc2cc(C(=O)[C@H]3C[C@@H]3C(=O)O)ccc2O1 [Example 2, Method 5, (1S,2S)-2-(2,2-Dimethyl-2,3-dihydro-1-benzofuran-5-carbonyl)cyclopropane-1-carboxylic acid] |
| 101 | O=C(O)[C@H]1C[C@@H]1C(=O)c1ccc2c(c1)SCCO2 [Example 3, Method 5, (1S,2S)-2-(2,3-dihydro-1,4-benzoxathiine-6-carbonyl)cyclopropane-1-carboxylic acid] |
| 94.1 | O=C(O)[C@H]1C[C@@H]1C(=O)c1ccc2c(c1)OCO2 [Example 4, Method 5, (1S,2S)-2-(2H-1,3-benzodioxole-5-carbonyl)cyclopropane-1-carboxylic acid] |
